This note sets out measurements from US20240148821A1, “PHARMACEUTICAL USE OF CYCLIC PEPTIDE COMPOUND” (CHUGAI SEIYAKU KABUSHIKI KAISHA, priority 2021, published 2024).

SMILES strings stand for the structures. Numbered stars: 1 amine (or outer) side, 2 acyl side, 3 side chain; on linkers, the order of the positions; unused ones are H or OH. Bridge positions count the residues as written; N and C are the ends. Square brackets hold non-standard residues; d marks the D form. Peptide text beside a SMILES is read from it. * marks the point of attachment. hPhe(3-Cl-4-CF3) = N[C@@H](CCc1ccc(C(F)(F)F)c(Cl)c1)C(=O)O; hPhe(3-F,4-CF3) = N[C@@H](CCc1ccc(C(F)(F)F)c(F)c1)C(=O)O; NMePhe(4-CF3) = CN[C@@H](Cc1ccc(C(F)(F)F)cc1)C(=O)O; NMePhe(4-Cl) = CN[C@@H](Cc1ccc(Cl)cc1)C(=O)O; X131 = O=C([C@H](Cc1cccc(Br)c1F)N[*:1])[*:2]; NMePhe(4-Me) = CN[C@@H](Cc1ccc(C)cc1)C(=O)O; NMeNle(6-CHF2) = CN[C@@H](CCCCC(F)F)C(=O)O; NMePhe(2-Cl) = CN[C@@H](Cc1ccccc1Cl)C(=O)O; NMeGly(cPent) = CN[C@H](C(=O)O)C1CCCC1; Phe(3-I) = N[C@@H](Cc1cccc(I)c1)C(=O)O; X26 = CC(C)=CC[C@H](N[*:1])C(=O)[*:2]; NMeY = CN[C@@H](Cc1ccc(O)cc1)C(=O)O; NMeCha = CN[C@@H](CC1CCCCC1)C(=O)O; NMehLeu = CN[C@@H](CCC(C)C)C(=O)O; NEtLeu = CCN[C@@H](CC(C)C)C(=O)O; NMeChg = CN[C@H](C(=O)O)C1CCCCC1; NMeD = CN[C@@H](CC(=O)O)C(=O)O; NMeL = CN[C@@H](CC(C)C)C(=O)O; Cba = N[C@@H](CC1CCC1)C(=O)O; NMeV = CN[C@H](C(=O)O)C(C)C; d(β3hA) = C[C@@H](N)CC(=O)O; Azetidin(1-yl) = C1CN(*)C1; NMeAbu = CC[C@H](NC)C(=O)O; NMeA = CN[C@@H](C)C(=O)O; NMeAib = CNC(C)(C)C(=O)O; Nle = CCCC[C@H](N)C(=O)O; Piperidide = C1CCN(*)CC1; Pra = C#CC[C@H](N)C(=O)O; dNMeA = CN[C@H](C)C(=O)O; Ac5c = NC1(C(=O)O)CCCC1; Aze = O=C(O)[C@@H]1CCN1; Aib = CC(C)(N)C(=O)O; NEtG = CCNCC(=O)O; Sar = CNCC(=O)O Where only a bound is given, the exact number is not on record here.

The assay concerns Human pancreatic cancer cell line AsPC-1 (G12D mutation Kras). Briefly: AsPC-1 cell growth inhibition (AsPC-1 CGI). It is filed as cell-based. The following applies: read-out: AsPC-1 cell growth inhibition, 50% growth inhibitory concentration (IC50 value); 96 hours, CellTiter-Glo, values classified in ranges. A general note: ATP-based viability assays read luminescence as a measure of living cells.
Protocol: Test compounds were serially dilated with dimethyl sulfoxide, and 200 nL was then dispensed to a U-bottom 96-well plate using Labcyte Echo. […] The cell suspension was dispensed to a. plate containing a test compound at 100 μL per well and incubated at 37° C. in a 5% carbon dioxide gas incubator. 96 hours later, 80 μL of CellTiter-Glo (Promega) was added to each well and fluorescence was measured.
As to `CC(C)=CC[C@@H]1NC(=O)[C@H](CC(C)C)N(C)C(=O)C[C@@H](C(=O)N2CCCCC2)N(C)C(=O)[C@H](C2CCCCC2)N(C)C(=O)C2(CCCC2)NC(=O)[C@@H]2CCCN2C(=O)[C@H](CCc2ccc(C(F)(F)F)c(Cl)c2)NC(=O)CN(C)C(=O)[C@H](CC2CCCCC2)N(C)C(=O)CN(C)C(=O)CN(C)C1=O` [Compound 1134] ([NMeL][X26][Sar][Sar][NMeCha][Sar][hPhe(3-Cl-4-CF3)]P[Ac5c][NMeChg][NMeD]-Piperidide; lactam N-11), the IC50 was above 500 nM.

Take `CC[C@H](C)[C@@H]1NC(=O)[C@H](CC(C)C)N(C)C(=O)C[C@@H](C)NC(=O)[C@H](C(C)C)N(C)C(=O)C2(CCCC2)NC(=O)[C@@H]2CCCN2C(=O)[C@H](CCc2ccc(C(F)(F)F)c(Cl)c2)NC(=O)[C@H]2CCCN2C(=O)[C@H](CC2CCCCC2)N(C)C(=O)CN(C)C(=O)CN(C)C1=O` [Compound 76] (cyclo([Ac5c][NMeV][d(β3hA)][NMeL]I[Sar][Sar][NMeCha][dP][hPhe(3-Cl-4-CF3)]P)): the IC50 was above 500 nM. Next, `CC[C@H](C)[C@@H]1NC(=O)[C@H](CCC(C)C)N(C)C(=O)C[C@@H](C(=O)N2CCC2)N(C)C(=O)[C@H](C2CCCC2)N(C)C(=O)C2(CCCC2)NC(=O)[C@@H]2CCCN2C(=O)[C@H](CCc2ccc(C(F)(F)F)c(Cl)c2)NC(=O)CN(C)C(=O)[C@H](CC2CCCCC2)N(C)C(=O)[C@@H]2CCN2C(=O)[C@H](C)N(C)C1=O` [Compound 806] ([NMehLeu]I[NMeA][Aze][NMeCha][Sar][hPhe(3-Cl-4-CF3)]P[Ac5c][NMeGly(cPent)][NMeD]-{Azetidin(1-yl)}; lactam N-11): at most 20 nM; `CC[C@H](C)[C@@H]1NC(=O)[C@H](CC(C)C)N(C)C(=O)C[C@@H](C(=O)N2CCCCC2)NC(=O)[C@H](C2CCCCC2)N(C)C(=O)C2(CCCC2)NC(=O)[C@@H]2CCCN2C(=O)[C@H](CCc2ccc(C(F)(F)F)c(Cl)c2)NC(=O)CN(C)C(=O)[C@H](CC2CCCCC2)N(C)C(=O)CN(C)C(=O)CN(C)C1=O` [Compound 1274] ([NMeL]I[Sar][Sar][NMeCha][Sar][hPhe(3-Cl-4-CF3)]P[Ac5c][NMeChg]D-Piperidide; lactam N-11): above 500 nM.

In the case of `CCCC[C@@H]1NC(=O)[C@H](Cc2cccc(Br)c2F)NC(=O)CN(C)C(=O)[C@H](Cc2ccc(OC)cc2)N(C)C(=O)[C@@H]2CCN2C(=O)[C@H](C)N(C)C(=O)[C@H]([C@@H](C)CC)NC(=O)[C@H](CC)N(C)C(=O)C[C@@H](C(=O)N2CCCCC2)N(C)C(=O)[C@H](CC(C)C)NC(=O)C(C)(C)N(C)C1=O` [Compound 1304] ([NMeAbu]I[NMeA][Aze][NMeY](Me)[Sar][X131][Nle][NMeAib]L[NMeD]-Piperidide; lactam N-11), the IC50 was above 500 nM. With `CCCC[C@@H]1NC(=O)[C@H](Cc2cccc(I)c2)NC(=O)CN(C)C(=O)[C@H](Cc2ccc(Cl)cc2)N(C)C(=O)CN(C)C(=O)CN(C)C(=O)[C@H]([C@@H](C)CC)NC(=O)[C@H](CC(C)C)N(C)C(=O)C[C@@H](C(=O)N2CCCCC2)N(C)C(=O)[C@H](CC(C)C)NC(=O)[C@H](Cc2ccc(C(F)(F)F)cc2)N(C)C1=O` [Compound 498] ([NMeL]I[Sar][Sar][NMePhe(4-Cl)][Sar][Phe(3-I)][Nle][NMePhe(4-CF3)]L[NMeD]-Piperidide; lactam N-11) the figure was above 500 nM; with `CC[C@H](C)[C@@H]1NC(=O)[C@H](C)N(C)C(=O)C[C@@H](C(=O)N2CCCCC2)N(C)C(=O)[C@H](C(C)C)N(C)C(=O)C2(CCCC2)NC(=O)[C@@H]2CCCN2C(=O)[C@H](CCc2ccc(C(F)(F)F)c(Cl)c2)NC(=O)[C@@H](C)N(C)C(=O)[C@H](CC2CCCCC2)N(C)C(=O)CN(C)C(=O)CN(C)C1=O` [Compound 380] ([NMeA]I[Sar][Sar][NMeCha][dNMeA][hPhe(3-Cl-4-CF3)]P[Ac5c][NMeV][NMeD]-Piperidide; lactam N-11), above 500 nM; with `CCCC[C@@H]1NC(=O)C(C)(C)N(C)C(=O)[C@H](CCCC)NC(=O)[C@H](Cc2cccc(I)c2)NC(=O)CN(C)C(=O)[C@H](Cc2ccc(Cl)cc2)N(C)C(=O)CN(C)C(=O)CN(C)C(=O)[C@H]([C@@H](C)CC)NC(=O)[C@H](CC(C)C)N(C)C(=O)C[C@@H](C(=O)N2CCCCC2)N(C)C1=O` [Compound 765] ([NMeL]I[Sar][Sar][NMePhe(4-Cl)][Sar][Phe(3-I)][Nle][NMeAib][Nle][NMeD]-Piperidide; lactam N-11), above 500 nM. With `CC[C@H](C)[C@@H]1NC(=O)[C@H](CC(C)C)N(C)C(=O)C[C@@H](C)NC(=O)[C@H](C2CCCC2)N(C)C(=O)C2(CCCC2)NC(=O)[C@H](C)NC(=O)[C@H](CCc2ccc(C(F)(F)F)c(Cl)c2)NC(=O)CN(C)C(=O)[C@H](Cc2ccc(C)cc2)N(C)C(=O)[C@@H]2CCN2C(=O)[C@H](C)N(C)C1=O` [Compound 1307] (cyclo(A[Ac5c][NMeGly(cPent)][d(β3hA)][NMeL]I[NMeA][Aze][NMePhe(4-Me)][Sar][hPhe(3-Cl-4-CF3)])) the figure was above 500 nM. Next, `CC[C@H](C)[C@@H]1NC(=O)[C@H](CC(C)C)N(C)C(=O)C[C@@H](C(=O)N2CCCCC2)N(C)C(=O)[C@H](CC(C)C)N(C)C(=O)C(C)(C)NC(=O)[C@H](CC(C)C)N(C)C(=O)[C@H](CCc2ccc(C(F)(F)F)c(F)c2)NC(=O)CN(C)C(=O)[C@H](CCCCC(F)F)N(C)C(=O)CN(C)C(=O)CN(C)C1=O` [Compound 1456] ([NMeL]I[Sar][Sar][NMeNle(6-CHF2)][Sar][hPhe(3-F,4-CF3)][NMeL][Aib][NMeL][NMeD]-Piperidide; lactam N-11): above 500 nM; `CC[C@H](C)[C@@H]1NC(=O)[C@H](CC(C)C)N(C)C(=O)C[C@@H](C)NC(=O)[C@H](C(C)C)N(C)C(=O)C2(CCCC2)NC(=O)[C@@H]2CCCN2C(=O)[C@H](CCc2ccc(C(F)(F)F)c(Cl)c2)NC(=O)CN(C)C(=O)[C@H](CC2CCCCC2)N(C)C(=O)CN(C)C(=O)CN(CC)C1=O` [Compound 210] (cyclo([Ac5c][NMeV][d(β3hA)][NMeL]I[NEtG][Sar][NMeCha][Sar][hPhe(3-Cl-4-CF3)]P)): above 500 nM; `C#CC[C@@H]1NC(=O)[C@H](Cc2cccc(I)c2)NC(=O)CN(C)C(=O)[C@H](Cc2ccc(C(F)(F)F)cc2)N(C)C(=O)[C@@H]2CCN2C(=O)CN(C)C(=O)[C@H]([C@@H](C)CC)NC(=O)[C@H](CC(C)C)N(C)C(=O)C[C@@H](C(=O)N2CCCCC2)N(C)C(=O)[C@H](CC(C)C)NC(=O)C(C)(C)N(C)C1=O` [Compound 1425] ([NMeL]I[Sar][Aze][NMePhe(4-CF3)][Sar][Phe(3-I)][Pra][NMeAib]L[NMeD]-Piperidide; lactam N-11): above 500 nM.

`C#CC[C@@H]1NC(=O)[C@H](Cc2cccc(I)c2)NC(=O)CN(C)C(=O)[C@H](Cc2ccc(OC)cc2)N(C)C(=O)CN(C)C(=O)CN(C)C(=O)[C@H]([C@@H](C)CC)NC(=O)[C@H](CC(C)C)N(C)C(=O)C[C@@H](C(=O)N2CCCCC2)N(C)C(=O)[C@H](CC(C)C)NC(=O)C(C)(C)N(C)C1=O` [Compound 1169] ([NMeL]I[Sar][Sar][NMeY](Me)[Sar][Phe(3-I)][Pra][NMeAib]L[NMeD]-Piperidide; lactam N-11): the IC50 is above 500 nM. Next, `CC[C@H](C)[C@@H]1NC(=O)[C@H](CC(C)C)N(CC)C(=O)C[C@@H](C(=O)N(C)C)N(C)C(=O)[C@H](C2CCCC2)N(C)C(=O)C2(CCCC2)NC(=O)[C@@H]2CCCN2C(=O)[C@H](CCc2ccc(C(F)(F)F)c(F)c2)NC(=O)CN(C)C(=O)[C@H](CC2CCCCC2)N(C)C(=O)[C@@H]2CCN2C(=O)[C@H](C)N(C)C1=O` [Compound 1324] ([NEtLeu]I[NMeA][Aze][NMeCha][Sar][hPhe(3-F,4-CF3)]P[Ac5c][NMeGly(cPent)][NMeD]-NMe2; lactam N-11): at most 20 nM. As to `CC[C@H](C)[C@@H]1NC(=O)[C@H](CC(C)C)N(C)C(=O)C[C@@H](C(=O)N(C)C)N(C)C(=O)[C@H](C2CCCC2)N(C)C(=O)C2(CCCC2)NC(=O)[C@H](Cc2ccccc2Cl)N(C)C(=O)[C@H](CCc2ccc(C(F)(F)F)c(Cl)c2)NC(=O)CN(C)C(=O)[C@H](CC2CCCCC2)N(C)C(=O)[C@@H]2CCN2C(=O)[C@H](C)N(C)C1=O` [Compound 1009] ([NMeL]I[NMeA][Aze][NMeCha][Sar][hPhe(3-Cl-4-CF3)][NMePhe(2-Cl)][Ac5c][NMeGly(cPent)][NMeD]-NMe2; lactam N-11), the IC50 was above 500 nM. Regarding `CC[C@H](C)[C@@H]1NC(=O)[C@H](CC(C)C)N(C)C(=O)C[C@@H](C(=O)N2CCCCC2)N(C)C(=O)[C@H](C2CCCCC2)N(C)C(=O)C2(CCCC2)NC(=O)[C@@H]2CCCN2C(=O)[C@H](CCc2ccc(C(F)(F)F)c(Cl)c2)NC(=O)CN(C)C(=O)[C@H](CC2CCCCC2)N(C)C(=O)[C@H](C)N(C)C(=O)CN(C)C1=O` [Compound 1186] ([NMeL]I[Sar][NMeA][NMeCha][Sar][hPhe(3-Cl-4-CF3)]P[Ac5c][NMeChg][NMeD]-Piperidide; lactam N-11), the IC50 is above 500 nM. Next, `CC[C@H](C)[C@@H]1NC(=O)[C@H](C(C)C)N(C)C(=O)C[C@@H](C)NC(=O)[C@H](CC(C)C)N(C)C(=O)C2(CCCC2)NC(=O)[C@H](CC(C)C)N(C)C(=O)[C@H](CCc2ccc(C(F)(F)F)c(Cl)c2)NC(=O)CN(C)C(=O)[C@H](Cc2ccc(Cl)cc2)N(C)C(=O)[C@@H]2CCN2C(=O)CN(C)C1=O` [Compound 158] (cyclo([Ac5c][NMeL][d(β3hA)][NMeV]I[Sar][Aze][NMePhe(4-Cl)][Sar][hPhe(3-Cl-4-CF3)][NMeL])): above 500 nM. Next, `CC(C)C[C@H]1C(=O)N[C@@H](CC2CCC2)C(=O)N(C)CC(=O)N(C)CC(=O)N(C)[C@@H](CC2CCCCC2)C(=O)N(C)CC(=O)N[C@@H](CCc2ccc(C(F)(F)F)c(Cl)c2)C(=O)N2CCC[C@H]2C(=O)NC2(CCCC2)C(=O)N(C)[C@@H](C2CCCCC2)C(=O)N(C)[C@H](C(=O)N2CCCCC2)CC(=O)N1C` [Compound 1759] ([NMeL][Cba][Sar][Sar][NMeCha][Sar][hPhe(3-Cl-4-CF3)]P[Ac5c][NMeChg][NMeD]-Piperidide; lactam N-11): above 500 nM.
